Several values for one entry are separate records, joined by “and”; a condition that tells them apart may be missing. Equal values may be shown once.
Experiments:
[1] = biological target: T1, MEK5 (Homo sapiens, UniProt Q13163); assay: KINOMEscan active-site competitive binding assay
T1 construct: purchased DiscoveRx (KINOMEscan service)
T1 sequence (Q13163 1-448): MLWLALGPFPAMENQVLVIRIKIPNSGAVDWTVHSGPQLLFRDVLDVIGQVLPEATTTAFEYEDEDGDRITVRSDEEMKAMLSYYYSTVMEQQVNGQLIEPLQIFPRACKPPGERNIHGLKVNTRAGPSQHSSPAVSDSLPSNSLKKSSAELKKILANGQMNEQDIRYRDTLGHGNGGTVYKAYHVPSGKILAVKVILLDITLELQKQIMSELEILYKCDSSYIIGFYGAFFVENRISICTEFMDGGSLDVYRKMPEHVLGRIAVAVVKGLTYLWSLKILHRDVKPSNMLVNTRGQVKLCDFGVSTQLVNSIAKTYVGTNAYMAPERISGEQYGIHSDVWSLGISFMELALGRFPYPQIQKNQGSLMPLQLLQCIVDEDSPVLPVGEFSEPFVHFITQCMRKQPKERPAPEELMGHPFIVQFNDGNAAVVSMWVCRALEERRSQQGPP

[2] = biological target: T2, DDR1 (Homo sapiens, UniProt Q08345); assay: KINOMEscan active-site competitive binding assay; details: slash = two separate measurements
T2 construct: purchased DiscoveRx (KINOMEscan service)

[3] = biological target: T3, TNIK (Homo sapiens, UniProt Q9UKE5); assay: KINOMEscan active-site competitive binding assay; details: slash = two separate measurements
T3 construct: purchased DiscoveRx

[4] = Calculated free drug concentration in human plasma; assay type: in vivo
[5] = Plasma protein binding in vitro (Transil), mouse plasma; assay type: in vitro ADME
Method: A radioactivity analysis was performed by liquid scintillation counting. […] All compounds were tested for stability at the incubation conditions used.

[6] = biological target: T4, FRK (Homo sapiens, UniProt P42685); assay: KINOMEscan active-site competitive binding assay; details: slash = two separate measurements
T4 construct: purchased DiscoveRx (KINOMEscan service)

[7] = biological target: T5, JNK2 (Homo sapiens, UniProt P45984); assay: KINOMEscan active-site competitive binding assay; details: slash = duplicate values
T5 construct: purchased DiscoveRx (KINOMEscan service)

[8] = system: EGFR family kinases, the protein kinase C family, insulin and insulin‐like growth factor receptor kinases, MET, MEK family kinases (with the exception of …); assay: KINOMEscan active-site competitive binding assay, kinases not inhibited; details: concentrations up to 1 μmol/L; data not shown
[9] = biological target: T6, EPHA8 (Homo sapiens, UniProt P29322); assay: KINOMEscan active-site competitive binding assay; details: slash = two separate measurements
T6 construct: purchased DiscoveRx (KINOMEscan service)
T6 sequence (P29322 28-1005): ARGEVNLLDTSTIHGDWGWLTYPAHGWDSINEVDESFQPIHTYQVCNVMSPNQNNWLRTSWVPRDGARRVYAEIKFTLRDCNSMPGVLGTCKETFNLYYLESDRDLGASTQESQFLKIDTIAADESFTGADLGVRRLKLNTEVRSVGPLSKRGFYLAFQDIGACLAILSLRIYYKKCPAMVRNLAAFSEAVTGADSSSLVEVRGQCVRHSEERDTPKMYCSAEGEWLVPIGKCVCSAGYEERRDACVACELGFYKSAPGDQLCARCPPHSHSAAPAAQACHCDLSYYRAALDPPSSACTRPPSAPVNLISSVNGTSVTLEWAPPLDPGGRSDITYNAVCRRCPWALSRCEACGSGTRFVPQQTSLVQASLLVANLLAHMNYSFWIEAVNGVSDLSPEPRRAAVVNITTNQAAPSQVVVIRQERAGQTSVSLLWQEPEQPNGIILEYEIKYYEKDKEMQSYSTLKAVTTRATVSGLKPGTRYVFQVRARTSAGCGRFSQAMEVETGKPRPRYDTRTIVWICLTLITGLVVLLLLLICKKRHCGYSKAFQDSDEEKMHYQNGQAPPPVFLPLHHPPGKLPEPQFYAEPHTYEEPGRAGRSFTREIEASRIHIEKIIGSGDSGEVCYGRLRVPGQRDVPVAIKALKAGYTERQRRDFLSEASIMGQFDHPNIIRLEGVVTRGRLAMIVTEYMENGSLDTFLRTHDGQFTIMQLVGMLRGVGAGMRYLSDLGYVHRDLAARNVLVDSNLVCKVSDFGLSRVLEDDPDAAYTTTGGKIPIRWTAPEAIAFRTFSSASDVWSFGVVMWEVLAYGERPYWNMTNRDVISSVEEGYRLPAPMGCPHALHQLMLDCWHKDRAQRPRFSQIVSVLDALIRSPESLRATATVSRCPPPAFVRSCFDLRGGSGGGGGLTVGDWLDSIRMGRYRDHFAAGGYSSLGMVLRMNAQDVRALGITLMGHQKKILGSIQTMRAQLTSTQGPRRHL

[10] = biological target: T7, TAK1 (Homo sapiens, UniProt O43318); assay: KINOMEscan active-site competitive binding assay; details: slash = two separate measurements
T7 construct: purchased DiscoveRx
T7 sequence (O43318 1-606): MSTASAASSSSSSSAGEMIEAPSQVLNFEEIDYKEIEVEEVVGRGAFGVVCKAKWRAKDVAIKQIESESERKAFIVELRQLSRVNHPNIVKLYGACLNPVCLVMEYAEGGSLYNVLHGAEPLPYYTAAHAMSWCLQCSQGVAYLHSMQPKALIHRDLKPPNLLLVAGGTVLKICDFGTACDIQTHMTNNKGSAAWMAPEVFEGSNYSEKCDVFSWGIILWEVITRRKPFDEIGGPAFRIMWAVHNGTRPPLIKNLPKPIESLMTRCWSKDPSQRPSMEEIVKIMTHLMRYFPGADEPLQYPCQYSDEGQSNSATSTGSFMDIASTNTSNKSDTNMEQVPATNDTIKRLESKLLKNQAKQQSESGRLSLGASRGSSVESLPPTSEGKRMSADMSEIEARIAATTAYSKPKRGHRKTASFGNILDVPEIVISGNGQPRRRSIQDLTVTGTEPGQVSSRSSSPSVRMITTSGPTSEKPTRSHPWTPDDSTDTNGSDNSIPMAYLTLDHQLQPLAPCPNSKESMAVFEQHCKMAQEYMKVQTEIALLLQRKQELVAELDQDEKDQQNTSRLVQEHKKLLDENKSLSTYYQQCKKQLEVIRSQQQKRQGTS

[11] = biological target: T8, CDK8 (Homo sapiens, UniProt P49336); assay: KINOMEscan active-site competitive binding assay; details: slash = two separate measurements
T8 construct: purchased DiscoveRx (KINOMEscan service)

[12] = biological target: T9, TIE-1 (Homo sapiens, UniProt P35590); assay: KINOMEscan active-site competitive binding assay; details: slash = two separate measurements
T9 construct: purchased DiscoveRx

[13] = biological target: T10, ABL1-np (Homo sapiens, UniProt P00519); assay: KINOMEscan active-site competitive binding assay; details: ABL1-np (not phosphorylated); slash = two separate measurements
T10 construct: purchased DiscoveRx (KINOMEscan service)

[14] = mouse (CD‐1), male, plasma, arithmetic mean ± SD

T3 sequence (Q9UKE5 whole entry): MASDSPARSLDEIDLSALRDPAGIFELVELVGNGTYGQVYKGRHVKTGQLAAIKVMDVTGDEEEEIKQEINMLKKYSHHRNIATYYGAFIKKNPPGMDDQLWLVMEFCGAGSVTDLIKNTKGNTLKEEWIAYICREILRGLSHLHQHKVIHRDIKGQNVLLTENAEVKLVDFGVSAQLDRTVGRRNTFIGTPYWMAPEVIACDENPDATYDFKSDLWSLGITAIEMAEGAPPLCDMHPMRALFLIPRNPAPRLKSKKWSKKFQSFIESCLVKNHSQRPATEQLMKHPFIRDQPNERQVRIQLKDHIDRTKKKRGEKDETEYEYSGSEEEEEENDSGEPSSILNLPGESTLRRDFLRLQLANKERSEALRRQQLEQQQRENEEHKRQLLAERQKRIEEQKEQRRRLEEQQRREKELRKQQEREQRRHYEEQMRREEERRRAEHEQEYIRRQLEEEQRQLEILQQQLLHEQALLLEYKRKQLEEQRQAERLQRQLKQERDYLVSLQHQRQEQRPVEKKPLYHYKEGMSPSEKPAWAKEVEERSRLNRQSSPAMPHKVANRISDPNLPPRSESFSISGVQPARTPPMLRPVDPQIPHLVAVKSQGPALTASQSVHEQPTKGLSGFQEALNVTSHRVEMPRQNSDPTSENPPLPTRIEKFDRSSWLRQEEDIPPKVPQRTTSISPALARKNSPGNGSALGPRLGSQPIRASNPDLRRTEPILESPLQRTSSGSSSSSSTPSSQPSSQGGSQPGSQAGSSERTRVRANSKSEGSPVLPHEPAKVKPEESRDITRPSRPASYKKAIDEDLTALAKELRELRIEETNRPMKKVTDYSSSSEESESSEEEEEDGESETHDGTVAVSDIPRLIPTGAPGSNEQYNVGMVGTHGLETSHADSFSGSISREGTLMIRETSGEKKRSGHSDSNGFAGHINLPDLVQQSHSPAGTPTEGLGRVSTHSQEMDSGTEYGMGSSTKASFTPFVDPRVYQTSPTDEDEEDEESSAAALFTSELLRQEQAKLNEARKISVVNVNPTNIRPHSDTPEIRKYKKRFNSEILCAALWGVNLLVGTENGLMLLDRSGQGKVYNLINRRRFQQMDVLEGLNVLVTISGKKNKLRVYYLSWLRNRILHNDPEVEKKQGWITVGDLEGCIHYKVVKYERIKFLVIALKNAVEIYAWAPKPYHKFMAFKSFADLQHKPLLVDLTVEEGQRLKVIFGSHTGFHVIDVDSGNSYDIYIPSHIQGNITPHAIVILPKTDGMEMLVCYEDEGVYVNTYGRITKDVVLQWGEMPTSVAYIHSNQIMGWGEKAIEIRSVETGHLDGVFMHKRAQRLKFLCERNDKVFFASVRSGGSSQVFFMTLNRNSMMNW
T10 sequence (P00519 whole entry): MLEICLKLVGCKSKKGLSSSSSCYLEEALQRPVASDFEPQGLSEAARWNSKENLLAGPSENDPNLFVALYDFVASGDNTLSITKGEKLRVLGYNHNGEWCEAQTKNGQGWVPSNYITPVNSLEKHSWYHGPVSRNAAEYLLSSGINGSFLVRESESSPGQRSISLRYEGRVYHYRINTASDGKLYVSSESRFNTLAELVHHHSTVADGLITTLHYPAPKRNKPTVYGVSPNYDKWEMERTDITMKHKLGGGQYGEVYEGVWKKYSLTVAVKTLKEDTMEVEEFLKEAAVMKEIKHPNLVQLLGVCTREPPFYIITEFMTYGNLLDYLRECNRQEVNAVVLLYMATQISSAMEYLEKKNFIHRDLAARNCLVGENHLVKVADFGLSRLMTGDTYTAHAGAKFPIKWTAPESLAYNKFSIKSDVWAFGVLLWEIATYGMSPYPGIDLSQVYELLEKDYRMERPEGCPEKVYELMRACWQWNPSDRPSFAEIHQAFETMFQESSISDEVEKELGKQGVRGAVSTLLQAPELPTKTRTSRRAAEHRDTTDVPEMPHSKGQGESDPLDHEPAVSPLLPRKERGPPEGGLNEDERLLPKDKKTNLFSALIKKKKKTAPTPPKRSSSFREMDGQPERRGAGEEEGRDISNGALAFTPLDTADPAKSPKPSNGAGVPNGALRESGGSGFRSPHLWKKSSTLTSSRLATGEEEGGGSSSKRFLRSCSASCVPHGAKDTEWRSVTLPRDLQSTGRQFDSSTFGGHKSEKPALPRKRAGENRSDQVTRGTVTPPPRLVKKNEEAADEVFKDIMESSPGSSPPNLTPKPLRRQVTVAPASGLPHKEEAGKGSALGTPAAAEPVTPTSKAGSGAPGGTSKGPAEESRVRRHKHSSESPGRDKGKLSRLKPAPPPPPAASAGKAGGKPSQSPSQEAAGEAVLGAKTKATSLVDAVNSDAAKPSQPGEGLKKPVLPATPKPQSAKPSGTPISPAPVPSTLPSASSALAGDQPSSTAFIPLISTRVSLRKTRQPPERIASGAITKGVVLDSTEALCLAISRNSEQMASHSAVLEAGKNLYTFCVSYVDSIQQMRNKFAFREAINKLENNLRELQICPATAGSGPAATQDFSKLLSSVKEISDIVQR
T5 sequence (P45984 whole entry): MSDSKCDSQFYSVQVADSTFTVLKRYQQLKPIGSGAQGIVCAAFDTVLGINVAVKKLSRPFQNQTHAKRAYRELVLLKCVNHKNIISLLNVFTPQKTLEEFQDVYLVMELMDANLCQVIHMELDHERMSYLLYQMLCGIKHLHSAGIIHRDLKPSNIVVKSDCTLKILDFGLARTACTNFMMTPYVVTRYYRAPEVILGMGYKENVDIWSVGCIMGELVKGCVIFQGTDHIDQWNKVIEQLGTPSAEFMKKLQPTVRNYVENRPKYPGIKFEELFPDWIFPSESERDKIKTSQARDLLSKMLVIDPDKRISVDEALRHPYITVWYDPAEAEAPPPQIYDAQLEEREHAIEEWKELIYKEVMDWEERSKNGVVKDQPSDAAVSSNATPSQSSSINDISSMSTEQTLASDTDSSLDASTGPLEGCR
T2 sequence (Q08345 19-913): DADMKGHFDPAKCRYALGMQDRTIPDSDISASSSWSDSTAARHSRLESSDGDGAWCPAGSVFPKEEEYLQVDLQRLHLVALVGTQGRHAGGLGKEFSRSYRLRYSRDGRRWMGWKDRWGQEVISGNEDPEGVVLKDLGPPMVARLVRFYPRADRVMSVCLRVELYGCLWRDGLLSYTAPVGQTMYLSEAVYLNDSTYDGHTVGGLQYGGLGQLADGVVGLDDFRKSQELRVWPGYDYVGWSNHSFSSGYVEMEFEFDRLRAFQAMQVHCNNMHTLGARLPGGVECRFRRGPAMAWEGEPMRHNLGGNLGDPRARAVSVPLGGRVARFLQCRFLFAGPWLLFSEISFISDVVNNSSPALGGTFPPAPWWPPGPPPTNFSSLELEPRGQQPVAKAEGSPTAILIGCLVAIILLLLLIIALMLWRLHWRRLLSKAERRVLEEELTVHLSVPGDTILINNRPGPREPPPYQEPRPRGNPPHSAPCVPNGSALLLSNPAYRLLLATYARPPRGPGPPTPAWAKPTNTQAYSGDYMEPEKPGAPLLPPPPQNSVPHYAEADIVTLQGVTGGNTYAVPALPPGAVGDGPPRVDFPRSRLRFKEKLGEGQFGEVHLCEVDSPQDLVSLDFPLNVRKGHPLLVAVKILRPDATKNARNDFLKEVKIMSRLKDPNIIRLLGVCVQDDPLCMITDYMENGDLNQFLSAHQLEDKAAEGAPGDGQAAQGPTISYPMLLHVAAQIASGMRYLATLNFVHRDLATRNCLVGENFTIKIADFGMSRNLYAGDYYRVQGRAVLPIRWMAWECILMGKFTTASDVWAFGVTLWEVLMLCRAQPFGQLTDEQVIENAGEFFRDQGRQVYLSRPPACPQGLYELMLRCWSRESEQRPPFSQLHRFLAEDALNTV
T8 sequence (P49336 whole entry): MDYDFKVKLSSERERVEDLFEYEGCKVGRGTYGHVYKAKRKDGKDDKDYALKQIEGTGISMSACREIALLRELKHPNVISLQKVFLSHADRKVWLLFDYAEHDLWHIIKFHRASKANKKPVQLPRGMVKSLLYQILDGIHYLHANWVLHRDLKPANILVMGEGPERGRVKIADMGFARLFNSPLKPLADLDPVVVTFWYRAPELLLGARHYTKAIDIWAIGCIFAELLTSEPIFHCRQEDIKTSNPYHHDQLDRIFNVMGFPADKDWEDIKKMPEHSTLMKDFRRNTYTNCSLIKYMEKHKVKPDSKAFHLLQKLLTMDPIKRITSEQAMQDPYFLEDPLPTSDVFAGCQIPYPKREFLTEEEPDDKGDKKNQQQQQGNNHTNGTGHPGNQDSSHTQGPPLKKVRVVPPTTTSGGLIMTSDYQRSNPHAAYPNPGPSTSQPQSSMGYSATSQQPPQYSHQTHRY
T4 sequence (P42685 whole entry): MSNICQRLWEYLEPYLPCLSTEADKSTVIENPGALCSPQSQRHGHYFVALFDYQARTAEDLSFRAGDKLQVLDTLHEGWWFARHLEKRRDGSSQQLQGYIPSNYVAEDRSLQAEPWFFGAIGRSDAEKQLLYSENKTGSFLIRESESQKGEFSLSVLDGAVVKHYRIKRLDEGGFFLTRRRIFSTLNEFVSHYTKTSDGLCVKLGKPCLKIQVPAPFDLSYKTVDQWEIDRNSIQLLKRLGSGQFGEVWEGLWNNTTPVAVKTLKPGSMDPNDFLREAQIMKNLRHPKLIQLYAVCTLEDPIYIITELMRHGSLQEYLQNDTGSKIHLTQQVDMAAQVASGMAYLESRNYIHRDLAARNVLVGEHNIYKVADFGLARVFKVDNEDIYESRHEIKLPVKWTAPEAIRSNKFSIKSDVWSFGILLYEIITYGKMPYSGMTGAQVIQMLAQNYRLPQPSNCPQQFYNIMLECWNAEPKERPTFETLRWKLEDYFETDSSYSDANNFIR

Row | SMILES | Kd [1] | Kd [2] | Kd [3] | Calculated free drug concentration [4] | Unbound fraction (%) [5, 14] | Proportion of protein‐bound drug ([5]; murine plasma) | Unbound fraction, fold higher than that of regorafenib ([5]; murine plasma) | Kd [6] | Kd [7] | Inhibition of binding [8] | Kd [9] | Kd [10] | Kd [11] | Kd [12] | Kd [13] | fraction unbound ([5]; male, CD-1, mouse, plasma, mouse (CD‐1), arithmetic mean ± SD)
1 | CNC(=O)c1cc(Oc2ccc(NC(=O)Nc3ccc(Cl)c(C(F)(F)F)c3)c(F)c2)cc[n+]1[O-] [M‐2] | 10 nM | 0.5 nM | 41 nM | 13.5 nmol/L | 0.888 ± 0.033% | more than 99% | approximately 1.5 fold | 42 nM | 67 nM and 44 nM | No inhibition | 61 nM | 79 nM | 43 nM | 48 nM | 23 nM | –
2 | CNC(=O)c1cc(Oc2ccc(NC(=O)Nc3ccc(Cl)c(C(F)(F)F)c3)c(F)c2)ccn1 [Regorafenib, reference compound] | 40 nM | 0.9 nM and 0.8 nM | 1100 nM and 970 nM | 42.1 nmol/L | 0.575 ± 0.039% | more than 99% | – | 69 nM and 42 nM | 1400 nM and 1900 nM | No inhibition | 140 nM and 130 nM | 170 nM and 260 nM | 100 nM and 73 nM | 30 nM and 27 nM | 32 nM and 16 nM | ~0.006
3 | NC(=O)c1cc(Oc2ccc(NC(=O)Nc3ccc(Cl)c(C(F)(F)F)c3)c(F)c2)cc[n+]1[O-] [M‐5] | 10 nM | 0.4 nM | 120 nM | 3.4 nmol/L | 0.412 ± 0.041% | more than 99% | – | 24 nM | 670 nM | No inhibition | 73 nM | 120 nM | 140 nM | 73 nM | 20 nM | –

Reference: paper PMC5119973 (Cancer Medicine, 2016)
